Assay results as given in US20060111289A1, “Compositions and methods of using Alpha-fetoprotein growth inhibitory peptides” (Serometrix, LLC,, priority 2004, published 2006).
Where a SMILES comes first, the peptide text is derived from it.

Columns and labels:
[1] = system: three human cancer cell lines (breast, prostate, or kidney); assay: Sulforhodamine cytostatic 6-day assay, cyclic versus linear peptide; assay type: cell-based; details: linear versus cyclic configuration
Method: FIG. 3 presents exemplary data showing the growth suppressive activities of the oligomeric forms of P149, cyclic versus linear, are depicted in various in vitro and in vivo models. Biological activity was determined by three growth-dependent bioassays, namely; • Panel-A and A1) an immature rodent uterine bioassay; • Panel-B and B 1) an in vitro MCF-7 foci assay; • Panel-C and C1) an in vitro tumor cell cytostatic assessment. […] See text for details. Scrambled peptide=P327.
GIP is a major participant in tumor cell surface interactions. GIP is a potent suppressor of tumor proliferation in both rodent and human cell models. GIP's biological activity is dependent on its oligomeric state, specifically its trimer (linear) versus monomer (cyclic) configuration. Biological activity was determined by three growth-dependent bioassays, namely, i) an immature rodent uterine assay; ii) an in vitro MCF-7 foci assay; and iii) an in vitro cytostatic assessment. […]
The cyclic form of GIP constitutes a disulfide-bridged monomer in solution, whereas GIP in the linear configuration is known to exist as an oligomeric trimer. […] Using three different human cancer cell lines (breast, prostate, or kidney) it was readily demonstrable that the monomeric cyclic form of the peptide produced 80-90% growth inhibition over a range of 10^−5 M to 10^−7 M when the sulforhodamine cytostatic 6-day assay was employed. […]

[2] = system: MCF-7 cells; assay: MCF-7 cell proliferation assay (8 days, sulforhodamine B); assay type: cell-based, human
Method: MCF-7 cells were seeded at 25,000 cells/well in 48 well microtiter plates, and incubated for eight days in the various test and control reagents. […] Tumor cells were fixed after 8 days and analyzed for proliferation using the standard sulfarhodamine B staining procedure.

[3] = system: 6WI-1 mammary tumor cells; assay: 6WI-1 mammary tumor in 15-day old mouse pups (6 day assay); assay type: in vivo; set-up: % Inhibition Of Activity: 6WI-1 Pup Ascites: concentration or dose not given beside the values; details: mouse pups
Description: As an alternative model of the 6WI-I mammary tumor in adult mice, an inocula of 1×10^6 tumor cells injected into 15-day old mouse pups provided a 6 day rather than a 12 day assay and replicated the same tumor growth suppression by GIP.

[4] = system: MCF-7 and 6WI-1 tumor cells; assay: Tumor cell adhesion to ECM proteins in microtiter plates; assay type: cell-based, human, murine
Method: FIG. 8 presents exemplary data showing the inhibition of P149 in the cellular adhesion of cancer cells to extracellular matrix (ECM) proteins for both human MCF-7 breast cancer cells and for murine 6WI-1 ascites-adapted mammary tumor cells. The cellular adhesion assay was performed in 96-well microtiter plates (Nunc Company, Denmark, catalog #263339) and the wells were pre-coated with 100 microliters of each of the above-mentioned ECM proteins for 24 hours as previously determined. After adding tumor cells, the plates were then incubated at 37° C. for various times; while 6WI-1 cells usually required only 2-4 hours incubation for adhesion; MCF-7 cells required 24 hours for attachment following trypsinization. For both cell lines, the cell culture media contained 5% calf serum to ensure cell attachment. The plates were washed twice with Hank's Saline, fixed in 0.5 mL of 37% formaldehyde, stained with crystal violet and read at […] on a microplate reader. Inset: Using a CyQUANT® stain kit, (Hoechst Corp., Germany) the plates were first exposed to a freeze/thaw cycle at −70° C. for 24 hours and 37° C. for 10 minutes. CyQUANT® buffer solution (150 microliters) was added to each well, and the cell adhesion was measured by fluorescence spectroscopy and quantitated using an ImageQuant® plate scanner (Fluorimager 595, Molecular Dynamics, Sunnyvale, Calif.).
This attachment of GIP was a slightly weaker adhesion matrix than was gelatin, chondroitin sulfate, and poly-lysine which approximated 30-35%. Using P149, the optimal amount of peptide required to inhibit tumor cell adhesion was determined by absorbing soluble peptide (1.0 pg to 100 μg) to the walls of microtiter plates. A constant number of MCF-7 tumor cells (i.e., for example, 1×10^5) were then added to the microtiter well and adhesion quantitated by fluorescence. […] The quantitation of MCF-7 and 6WI-1 cell adhesion in the presence of peptide versus peptide-free media was then determined on ECM-coated microtiter plates using 3 μg GIP/well as a competitive inhibitor. The P149 peptide was added to the wells immediately after the cells were dispensed and then the mixture was incubated as described. The AFP peptide was capable of cell adhesion inhibition in most of the ECM proteins in both tumor cell lines. Inhibition of mouse and human tumor cell adhesion was somewhat equivalent using collagen IV, fibrinogen, fibronectin, and thrombospondin. […] Thus, the GIP was found capable of eliciting different attachment inhibitions dependent on the type of ECM protein coating the wall of the microtiter plate and also the tumor cell type involved.

CC[C@H](C)[C@H](NC(=O)[C@@H]1CSSC[C@H](NC(=O)[C@H](C)NC(=O)[C@H](CC(C)C)NC(=O)[C@H](CC(C)C)NC(=O)[C@H](CCCCN)NC(=O)[C@H](CC(=O)O)NC(=O)[C@H](CCC(=O)O)NC(=O)[C@H](CO)NC(=O)[C@@H](N)CC(C)C)C(=O)NCC(=O)N[C@@H](CCC(=O)O)C(=O)NCC(=O)N[C@@H](C)C(=O)N[C@@H](C)C(=O)N[C@@H](CC(=O)O)C(=O)N[C@@H]([C@@H](C)CC)C(=O)N[C@@H]([C@@H](C)CC)C(=O)N[C@@H]([C@@H](C)CC)C(=O)NCC(=O)N[C@@H](Cc2c[nH]cn2)C(=O)N[C@@H](CC(C)C)C(=O)N1)C(=O)N[C@@H](CCCNC(=N)N)C(=O)N[C@@H](Cc1c[nH]cn1)C(=O)N[C@@H](CCC(=O)O)C(=O)N[C@@H](CCSC)C(=O)N[C@H](C(=O)N1CCC[C@H]1C(=O)N[C@H](C(=O)N[C@@H](CC(N)=O)C(=O)N1CCC[C@H]1C(=O)NCC(=O)N[C@H](C(=O)O)C(C)C)C(C)C)[C@@H](C)O [Cyclic GIP] (HELM PEPTIDE1{L.S.E.D.K.L.L.A.C.G.E.G.A.A.D.I.I.I.G.H.L.C.I.R.H.E.M.T.P.V.N.P.G.V}$PEPTIDE1,PEPTIDE1,9:R3-22:R3$$$V2.0; N-terminus and C-terminus assumed)
Inhibition in the in vitro cytostatic assay [1]: 80-90%
Growth suppression of MCF-7 cells ([2]; 8 days, 10^−8 to 10^−12 M): 80 to 90%
Most effective concentration for growth suppression ([2]; culture day-8, tested 10^−5 to 10^−14 M): 10^−8 M

KDFIHKQGVALQTMKQELINLVKELVKPQIEAVADFSGLL (listed as Homo sapiens) [P192, reference compound]
% Inhibition Of Activity: 6WI-1 Pup Ascites [3]: 0%
% Inhibition Of Activity: Cell Adhesion [4]: 0%
